Results on 4 molecules are retold here after patent publication US7955815B2, “Two-photon fluorescent probes for acidic vesicles in live cells and tissue and method of imaging acidic vesicles in live cells and tissue using the same” (Korea University Industrial & Academic Collaboration …, priority 2007, dated 2011).

Molecules are shown by their SMILES. Values after ≈ are worked out from the molar mass of the structure shown.

A short description of data set [1]: Water solubility from fluorescence intensity vs probe concentration. To be noted: kinetic from dmso stock, H2O, 0.2% DMSO, read-out: solubility (maximum concentration in the linear region). The class given is physicochemical. On the procedure:
Each of the probes AH1, AH2 and AL1 prepared in Examples 1-3 was dissolved in DMSO to prepare a stock solution (1.0×10^−3 M). The solution was diluted to […] and added to a cuvette containing 3.0 mL of H2O by using a micro syringe. In all cases, the concentration of DMSO in H2O was maintained to be 0.2%. The fluorescence intensity of the probe was measured as a function of the probe concentration.
Referring to FIG. 1, the fluorescence intensities of the probes increased in all wavelength bands with increasing probe concentration.
The plots (1b, 1d and 1f) have a profile in which the fluorescence intensity increases with increasing probe concentration.
Referring to the profile, the fluorescence intensity increases linearly until the dye concentration reaches a predetermined level. […] The maximum concentration in the linear region was taken as the solubility. The solubilities of the probes AH1, AH2, and AL1 were 5.0, 9.0, and 5.0 μM, respectively.

Data set [2] in a line: Two-photon action cross section by fs fluorescence measurement, fluorescein as reference. The class given is physicochemical. To be noted: 780 nm. As for the experimental part:
The two-photon cross section (δ) was determined by using femto second (fs) fluorescence measurement technique.
Specifically, each of the probes AH1, AH2, AL1 and LYSOTRACKER™ Red (DND-99) was dissolved in a universal buffer (pH=3.2) at a concentration of 5.0×10^−6 M and then the two-photon induced fluorescence intensity was measured at 740-940 nm by using fluorescein (8.0×10^−6 M, pH=11) as the reference, whose two-photon property has been well characterized.
The intensities of the two-photon induced fluorescence spectra of the reference and the sample probe were measured, and the two-photon cross section of the sample probe was calculated according to Equation 2: […]
wherein the subscripts s and r represent the sample probe and the reference, respectively, δ represents the two-photon cross section of the sample probe, and S represents the intensity of the signal collected by a detector, Φ represents the fluorescence quantum yield, φ represents the overall fluorescence collection efficiency of the experimental apparatus, c represents the number density of the molecules in solution, and δr represents the two-photon cross section of the reference.
The two-photon action cross section of the sample probe was calculated by multiplying the two-photon cross section by the quantum yield.

Data set [3] relates to acidic vesicles in macrophages. As to the kind of experiment: Two-photon microscopy images of labeled macrophages, co-localized with LysoTracker Red OPM image. The class given is cell-based. To be noted: TPM. An excerpt: TPM images of individual macrophages labeled with the probe AH2 of Example 2 were obtained (FIG. 3).
In contrast, the TPM images of the AH2-labeled macrophages emitted TPEF only at 500-620 nm (3b), and not at 360-460 nm (3a), which was attributed to the membrane-bound probe.
To unambiguously determine whether the intense red spots (3b) are indeed the acidic vesicles, the macrophages were stained With LYSOTRACKER™ Red (LTR), a well known one-photon fluorescent probe, and a one-photon micrography (OPM) image thereof was obtained (3c). The TPM image was co-localized with the OPM image (3d).
Acidic vesicles were imaged in the same manner as in Experimental Example 3-(1), except that the probe AH1 of Example 1 was used instead of the probe AH2 of Example 2.
Acidic vesicles were imaged in the same manner as in Experimental Example 3-(1), except that the probe AL1 of Example 3 was used instead of the probe AH2 of Example 2.

A short description of data set [4]: Fluorescence as a function of pH in universal buffer; pKa value analysis. The class given is physicochemical. To be noted: for fluorescence intensity change with pH: pH gradually decreased; for pKa: universal buffer solution, from fluorescence intensity as a function of pH. As for the experimental part: Each of the probes AH1 and AH2 was dissolved in a universal buffer solution (0.1 M citric acid, 0.1 M KH2PO4, 0.1 M Na2B4O7, 0.1 M Tris, 0.1 M KCl 10 mM).
The fluorescence intensities of the probes AH1 and AH2 were measured, and titration curves thereof were plotted (FIG. 9). In FIG. 9, Y-axis represents the fluorescence intensity enhancement factor [(F−Fo)/Fo] (F is the fluorescence intensity and Fo is the minimum fluorescence intensity).
The pKa values were estimated from the fluorescence intensity measured as a function of the pH by using the relationship 1: log [(Imax−I)/(I−Imin)]=pH−pKa (1)
wherein I represents the fluorescence intensity, and Imax and Imin represent the maximum and minimum fluorescence intensity, respectively.

The test system of data set [5] is acidic vesicles in hippocampal slices. As to the kind of experiment: TPEF imaging of rat hippocampal slices. On the procedure: Slices were prepared from the hippocampi of a 2-day-old rat. The hippocampal slices were cut into a thickness of 400 μm. The slices were incubated with the probes AH2 and AL1 (10-20 μM).
The slices were then washed and transferred to glass-bottomed dishes. The TPEF images of the slices were obtained.
40 TPM images were accumulated along the z-direction at the depth of ˜100-250 μm with magnification 10× (6b).

Usually pKa stands for the pH at which an ionisable group is half protonated. On to `CC(=O)c1ccc2cc(N(C)CC(=O)Nc3ccc(N)cc3)ccc2c1` [AH1], for which the solubility in data set [1] came out at 5 µM (≈ 1.74 µg/mL). Further, the “two-photon action cross section relative to LysoTracker Red” value in data set [2] was 9 fold. Also, the “imaging of acidic vesicles in macrophages (TPEF at 500-620 nm, merged with LTR image)” value (“imaging of acidic vesicles” below) in data set [3] is on record as “clearly capable of imaging the acidic vesicles”. In data set [4], the “fluorescence intensity change with pH” value was “increased dramatically around pH 4-5” and the pKa worked out at 4.42 ± 0.03.

As for `COc1cc(NC(=O)CN(C)c2ccc3cc(C(C)=O)ccc3c2)ccc1N` [AH2], in data set [1], the solubility came to 9 µM (≈ 3.4 µg/mL). In addition, the “two-photon action cross section relative to LysoTracker Red” value in data set [2] is 9 fold. Also, the “imaging of acidic vesicles” value in data set [3] was “clearly capable of imaging the acidic vesicles”. Further, in data set [4], the “fluorescence intensity change with pH” value is on record as “increased dramatically around pH 4-5” and the pKa is 4.18 ± 0.01. The “depth at which TPEF images were obtained” value in data set [5] (400 μm hippocampal slices of 2-day-old rat, probe 10-20 μM) came to 250 μm.

On to `CN(C)CCNC(=O)CCc1ccc2n1[B-](F)(F)[N+]1=C(c3ccc[nH]3)C=CC1=C2` [LYSOTRACKER™ Red (LTR), reference compound], for which, in data set [2] (universal buffer pH 3.2, 5.0×10^−6 M), the “two-photon action cross section (Φδ)” value is given as around 10 GM.

In the case of `CC(=O)c1ccc2cc(N(C)CC(=O)NCCN(C)C)ccc2c1` [AL1], the solubility in data set [1] amounted to 5 µM (≈ 1.64 µg/mL). The “imaging of acidic vesicles” value in data set [3] was “clearly capable of imaging the acidic vesicles”. Besides, in data set [4], the “fluorescence intensity change with pH” value is “maintained at a substantially constant level despite changes in acidity”. In addition, the “imaging of transportation of acidic vesicles” value in data set [5] (acute rat hippocampal slice, CA3 region, depth ~120 μm, 10 μM) is listed as “can visualize the transportation of acidic vesicles in the CA3 region for a long period of time”.
